The results in this text go back to patent US6844321B2, “Crystallization of a GLP-1 analogue” (Novo Nordisk A/S, priority 2000, dated 2005).

The data set is described as follows: isoelectric point (pI) of the GLP-1 analogue. Type of data set: physicochemical. Particulars: isoelectric point of the peptide, stated in the description.

Regarding Arg^34GLP-1(7-37), the pI result is reported as “about 5.4”.
